Values joined by “and” are separate entries in the source; they are usually repeats but may differ in a detail not shown here. Equal entries are not always repeated. Where no end group is shown, it is not given here.
Key:
[1] = test system: VSV; format: cell-based, Vesicular stomatitis virus (VSV)
[2] = test system: VSV; format: cell-based, Vesicular stomatitis virus (VSV); remark: listed apart in the source

Substance | Amount of virus in culture supernatant [1] | observation field occupied by a monolayer of living cells [2]
FFFIIGLIIGLFLVLRVGIHLKKRTLRKNDRKKR-NH2 [Sample 2] | 4.7 Log10 TCID 50/mL and 3.5 Log10 TCID 50/mL | 
MAIVGIVLLIVVTFLAIKTKKRTLRKNDRKKR-NH2 [Sample 1] | 4.4 Log10 TCID 50/mL and 5 Log10 TCID 50/mL | 
VLAVIIGFVILMFLIKLIGVLKKRTLRKNDRKKR-NH2 [Sample 3] | 4.7 Log10 TCID 50/mL and 4.5 Log10 TCID 50/mL | ≥ 90%
